From patent US8674109B2, “Pesticidal compositions” (Dow AgroSciences, LLC., priority 2009, dated 2014)

Tests used:
Assay type in all cases: in vivo
[1] = test system: beet armyworm (BAW; Spodoptera exigua: Lepidoptera); test: Insecticidal test for beet armyworm, 128-well diet tray assay
Method: Insecticidal Test for Beet Armyworm (Spodoptera exigua)
(§1) Bioassays on beet armyworm (BAW; Spodoptera exigua: Lepidoptera) were conducted using a 128-well diet tray assay. Three to five second instar BAW larvae were placed in each well (3 mL) of the diet tray that had been previously filled with 1 mL of artificial diet to which 50 μg/cm^2 of the test compound (dissolved in 50 μL of 90:10 acetone-water mixture) had been applied (to each of eight wells) and then allowed to dry. Trays were covered with a clear self-adhesive cover, and held at 25° C., 14:10 light-dark for six days. Percent mortality was recorded for the larvae in each well; activity in the eight wells was then averaged.

[2] = test system: corn earworm (CEW; Helicoverpa zea: Lepidoptera); test: Insecticidal test for corn earworm, 128-well diet tray assay
Method: Insecticidal Test for Corn Earworm (Helicoverpa zea)
as §1, with “corn earworm (CEW; Helicoverpa zea:” for “beet armyworm (BAW; Spodoptera exigua:”, “CEW” for “BAW”

[3] = test system: green peach aphid (Myzus persicae); test: Insecticidal test for green peach aphid in foliar spray assay on cabbage seedlings
Method: Insecticidal Test for Green Peach Aphid (Myzus persicae) in Foliar Spray Assay
Cabbage seedlings grown in 3-inch pots, with 2-3 small (3-5 cm) true leaves, were used as test substrate. The seedlings were infested with 20-50 green peach aphids (wingless adult and nymph) one day prior to chemical application. Four pots with individual seedlings were used for each treatment. Compounds (2 mg) were dissolved in 2 mL of acetone/methanol (1:1) solvent, forming stock solutions of 1000 ppm. The stock solutions were diluted 5× with 0.025% Tween 20 in H2O to obtain the solution at 200 ppm. A hand-held Devilbiss sprayer was used for spraying a solution to both sides of cabbage leaves until runoff. Reference plants (solvent check) were sprayed with the diluent only. Treated plants were held in a holding room for three days at approximately 25° C. and 40% relative humidity (RH) prior to grading. Evaluation was conducted by counting the number of live aphids per plant under a microscope. Insecticidal activity was measured by using Abbott's correction formula are presented in Table 2: Corrected % Control=100*(X−Y)/X
where • X=No. of live aphids on solvent check plants • Y=No. of live aphids on treated plants

Structure (SMILES): CCCCC(OC(=O)Nc1ccc(-c2ncn(-c3ccc(OC(F)(F)F)cc3)n2)cc1)C(=O)OCC (stereo not drawn) [Compound 26, 2-{4-[1-(4-trifluoromethoxyphenyl)-1H-[1,2,4]triazol-3-yl]-phenylcarbamoyloxy}-hexanoic acid ethyl ester]
- % Mortality BAW 50 μg/cm^2 [1]: A (50-100)
- % Mortality CEW 50 μg/cm^2 [2]: A (50-100)

Structure (SMILES): Cc1cccc(C(C)OC(=O)Nc2ccc(-c3ncn(-c4ccc(OC(F)(F)F)cc4)n3)cc2)c1 (stereo not drawn) [Compound 92]
- % Mortality BAW 50 μg/cm^2 [1]: A (50-100)
- % Mortality GPA 200 ppm [3]: B (Less than 80)
- % Mortality CEW 50 μg/cm^2 [2]: A (50-100)

Structure (SMILES): CC(OC(=O)Nc1ccc(-c2ncn(-c3ccc(OC(F)(F)F)cc3)n2)cc1)C(C)(C)C (stereo not drawn) [Compound 103]
- % Mortality BAW 50 μg/cm^2 [1]: A (50-100)
- % Mortality GPA 200 ppm [3]: B (Less than 80)
- % Mortality CEW 50 μg/cm^2 [2]: B (Less than 50)

Structure (SMILES): CC(C)(C)OC(=O)Nc1ccc(-c2ncn(-c3ccc(OC(F)(F)C(F)(F)F)cc3)n2)cc1 [Compound 1, {4-[1-(4-pentafluoroethyloxyphenyl)-1H-[1,2,4]triazol-3-yl]-phenyl}-carbamic acid tert-butyl ester]
- % Mortality BAW 50 μg/cm^2 [1]: A (50-100)
- % Mortality GPA 200 ppm [3]: B (Less than 80)
- % Mortality CEW 50 μg/cm^2 [2]: A (50-100)

Structure (SMILES): Cc1cc(C)c(CCOC(=O)Nc2ccc(-c3ncn(-c4ccc(OC(F)(F)F)cc4)n3)cc2)c(C)c1 [Compound 121]
- % Mortality BAW 50 μg/cm^2 [1]: B (Less than 50)
- % Mortality GPA 200 ppm [3]: B (Less than 80)
- % Mortality CEW 50 μg/cm^2 [2]: A (50-100)

Structure (SMILES): N#CC(OC(=O)Nc1ccc(-c2ncn(-c3ccc(OC(F)(F)F)cc3)n2)cc1)c1ccccc1 (stereo not drawn) [Compound 112]
- % Mortality BAW 50 μg/cm^2 [1]: A (50-100)
- % Mortality GPA 200 ppm [3]: B (Less than 80)
- % Mortality CEW 50 μg/cm^2 [2]: A (50-100)

Structure (SMILES): COc1ccc(C(C)OC(=O)Nc2ccc(-c3ncn(-c4ccc(OC(F)(F)F)cc4)n3)cc2)cc1 (stereo not drawn) [Compound 97]
- % Mortality BAW 50 μg/cm^2 [1]: A (50-100)
- % Mortality GPA 200 ppm [3]: B (Less than 80)
- % Mortality CEW 50 μg/cm^2 [2]: A (50-100)

Structure (SMILES): CCCCCCC(C)OC(=O)Nc1ccc(-c2ncn(-c3ccc(OC(F)(F)F)cc3)n2)cc1 (stereo not drawn) [Compound 102]
- % Mortality BAW 50 μg/cm^2 [1]: B (Less than 50)
- % Mortality GPA 200 ppm [3]: B (Less than 80)
- % Mortality CEW 50 μg/cm^2 [2]: B (Less than 50)

Structure (SMILES): CCOC(=O)C(C)(C)OC(=O)Nc1ccc(-c2ncn(-c3ccc(OC(F)(F)F)cc3)n2)cc1 [Compound 20]
- % Mortality BAW 50 μg/cm^2 [1]: A (50-100)
- % Mortality GPA 200 ppm [3]: B (Less than 80)
- % Mortality CEW 50 μg/cm^2 [2]: A (50-100)

Structure (SMILES): CC(OC(=O)Nc1ccc(-c2ncn(-c3ccc(OC(F)(F)F)cc3)n2)cc1)c1ccc(C(F)(F)F)nc1 (stereo not drawn) [Compound 41]
- % Mortality BAW 50 μg/cm^2 [1]: A (50-100)
- % Mortality GPA 200 ppm [3]: B (Less than 80)
- % Mortality CEW 50 μg/cm^2 [2]: A (50-100)

Structure (SMILES): COc1ccc(CC(C)(C)OC(=O)Nc2ccc(-c3ncn(-c4ccc(OC(F)(F)F)cc4)n3)cc2)cc1 [Compound 100]
- % Mortality BAW 50 μg/cm^2 [1]: B (Less than 50)
- % Mortality GPA 200 ppm [3]: B (Less than 80)
- % Mortality CEW 50 μg/cm^2 [2]: B (Less than 50)

Structure (SMILES): CC(OC(=O)Nc1ccc(-c2ncn(-c3ccc(OC(F)(F)F)cc3)n2)cc1)c1ccc(Cl)cn1 (stereo not drawn) [Compound 118]
- % Mortality BAW 50 μg/cm^2 [1]: A (50-100)
- % Mortality GPA 200 ppm [3]: B (Less than 80)
- % Mortality CEW 50 μg/cm^2 [2]: A (50-100)

Structure (SMILES): CC(OC(=O)Nc1ccc(-c2ncn(-c3ccc(OC(F)(F)F)cc3)n2)cc1)c1ccc(C(C)(C)C)cc1 (stereo not drawn) [Compound 40]
- % Mortality BAW 50 μg/cm^2 [1]: A (50-100)
- % Mortality GPA 200 ppm [3]: B (Less than 80)
- % Mortality CEW 50 μg/cm^2 [2]: A (50-100)

Structure (SMILES): O=C(Nc1ccc(-c2ncn(-c3ccc(OC(F)(F)F)cc3)n2)cc1)Oc1cccc(C(F)(F)F)c1 [Compound 125]
- % Mortality GPA 200 ppm [3]: B (Less than 80)

Structure (SMILES): CCOC(=O)CC(C)OC(=O)Nc1ccc(-c2ncn(-c3ccc(OC(F)(F)F)cc3)n2)cc1 (stereo not drawn) [Compound 17]
- % Mortality BAW 50 μg/cm^2 [1]: B (Less than 50)
- % Mortality GPA 200 ppm [3]: B (Less than 80)
- % Mortality CEW 50 μg/cm^2 [2]: A (50-100)

Structure (SMILES): O=C(Nc1ccc(-c2ncn(-c3ccc(OC(F)(F)F)cc3)n2)cc1)OC(c1ccccc1)C(F)(F)F (stereo not drawn) [Compound 90]
- % Mortality BAW 50 μg/cm^2 [1]: A (50-100)
- % Mortality GPA 200 ppm [3]: B (Less than 80)
- % Mortality CEW 50 μg/cm^2 [2]: A (50-100)

Structure (SMILES): CC(OC(=O)Nc1ccc(-c2ncn(-c3ccc(OC(F)(F)F)cc3)n2)cc1)c1ccc(OC(F)(F)F)cc1 (stereo not drawn) [Compound 64]
- % Mortality BAW 50 μg/cm^2 [1]: A (50-100)
- % Mortality GPA 200 ppm [3]: B (Less than 80)
- % Mortality CEW 50 μg/cm^2 [2]: A (50-100)

Structure (SMILES): CC(C)(Cc1ccccc1)OC(=O)Nc1ccc(-c2ncn(-c3ccc(OC(F)(F)F)cc3)n2)cc1 [Compound 11, {4-[1-(4-trifluoromethoxyphenyl)-1H-[1,2,4]triazol-3-yl]-phenyl}-carbamic acid 1,1-dimethyl-2-phenyl-ethyl ester]
- % Mortality BAW 50 μg/cm^2 [1]: A (50-100)
- % Mortality GPA 200 ppm [3]: B (Less than 80)
- % Mortality CEW 50 μg/cm^2 [2]: A (50-100)

Structure (SMILES): C#Cc1ccc(C(C)OC(=O)Nc2ccc(-c3ncn(-c4ccc(OC(F)(F)F)cc4)n3)cc2)cc1 (stereo not drawn) [Compound 44]
- % Mortality BAW 50 μg/cm^2 [1]: A (50-100)
- % Mortality GPA 200 ppm [3]: B (Less than 80)
- % Mortality CEW 50 μg/cm^2 [2]: A (50-100)

Structure (SMILES): CC(OC(=O)Nc1ccc(-c2ncn(-c3ccc(OC(F)(F)F)cc3)n2)cc1)c1c(F)c(F)c(F)c(F)c1F (stereo not drawn) [Compound 114]
- % Mortality BAW 50 μg/cm^2 [1]: A (50-100)
- % Mortality GPA 200 ppm [3]: B (Less than 80)
- % Mortality CEW 50 μg/cm^2 [2]: B (Less than 50)

Structure (SMILES): O=C(Nc1ccc(-c2ncn(-c3ccc(OC(F)(F)F)cc3)n2)cc1)OC(c1ccccc1)c1ccccc1 [Compound 83]
- % Mortality BAW 50 μg/cm^2 [1]: A (50-100)
- % Mortality GPA 200 ppm [3]: B (Less than 80)
- % Mortality CEW 50 μg/cm^2 [2]: A (50-100)

Structure (SMILES): CC(OC(=O)Nc1ccc(-c2ncn(-c3ccc(OC(F)(F)F)cc3)n2)cc1)c1ccc2ccccc2n1 (stereo not drawn) [Compound 36]
- % Mortality BAW 50 μg/cm^2 [1]: A (50-100)
- % Mortality GPA 200 ppm [3]: B (Less than 80)
- % Mortality CEW 50 μg/cm^2 [2]: A (50-100)

Structure (SMILES): CC(C)(C#N)OC(=O)Nc1ccc(-c2ncn(-c3ccc(OC(F)(F)F)cc3)n2)cc1 [Compound 14, {4-[1-(4-trifluoromethoxyphenyl)-1H-[1,2,4]triazol-3-yl]-phenyl}-carbamic acid cyano-dimethyl-methyl ester]
- % Mortality BAW 50 μg/cm^2 [1]: B (Less than 50)
- % Mortality CEW 50 μg/cm^2 [2]: B (Less than 50)

Structure (SMILES): C[C@H](OC(=O)Nc1ccc(-c2ncn(-c3ccc(OC(F)(F)F)cc3)n2)cc1)c1ccccc1 [Compound 60]
- % Mortality BAW 50 μg/cm^2 [1]: A (50-100)
- % Mortality CEW 50 μg/cm^2 [2]: A (50-100)

Structure (SMILES): O=C(Nc1ccc(-c2ncn(-c3ccc(OC(F)(F)F)cc3)n2)cc1)Oc1ccc(F)cc1 [Compound 127]
- % Mortality GPA 200 ppm [3]: B (Less than 80)

Structure (SMILES): CN(C(=O)OC(C)(C)C)c1ccc(-c2ncn(-c3ccc(OC(F)(F)F)cc3)n2)cc1 [Compound 131, tert-butyl methyl(4-(1-(4-(trifluoromethoxy)phenyl)-1H-1,2,4-triazol-3-yl)phenyl)carbamate]
- % Mortality GPA 200 ppm [3]: B (Less than 80)

Structure (SMILES): C[C@@H](OC(=O)Nc1ccc(-c2ncn(-c3ccc(OC(F)(F)F)cc3)n2)cc1)c1ccccc1 [Compound 61]
- % Mortality BAW 50 μg/cm^2 [1]: A (50-100)
- % Mortality CEW 50 μg/cm^2 [2]: A (50-100)

Structure (SMILES): O=C(Nc1ccc(-c2ncn(-c3ccc(OC(F)(F)F)cc3)n2)cc1)Oc1ccc(C(F)(F)F)cc1 [Compound 126]
- % Mortality GPA 200 ppm [3]: B (Less than 80)
